Source: the supplement of paper PMC4862054

Experiments:
Experiment in all cases: normalised response (% of control), CellTiter-Glo; higher = more viable cells (100 = DMSO, 0 = benzethonium chloride kill control)
Conditions in all cases: incubation time: 72 h
CAL-51 = tested on: CAL-51
Description: (§1)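 DSRT, 72 h incubation, CellTox Green / CellTiter-Glo readout. Signal is normalised to DMSO and benzethonium chloride controls. Value is the normalised response at the highest dose.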

HCC1937 = tested on: HCC1937
Description: as §1

MFM-223 = tested on: MFM-223
Description: as §1

MCF-10A = tested on: MCF-10A
Description: as §1

Hs578T = tested on: Hs578T
Description: as §1

SK-BR-3 = tested on: SK-BR-3
Description: as §1

CAL-120 = tested on: CAL-120
Description: as §1

BT-474 = tested on: BT-474
Description: as §1

MDA-MB-231 = tested on: MDA-MB-231
Description: as §1

MDA-MB-436 = tested on: MDA-MB-436
Description: as §1

HCC1143 = tested on: HCC1143
Description: as §1

MDA-MB-468 = tested on: MDA-MB-468
Description: as §1

HCC1599 = tested on: HCC1599
Description: as §1

MDA-MB-453 = tested on: MDA-MB-453
Description: as §1

DU-4475 = tested on: DU-4475
Description: as §1

BT-549 = tested on: BT-549
Description: as §1

HDQ-P1 = tested on: HDQ-P1
Description: as §1

CAL-148 = tested on: CAL-148
Description: as §1

Row | Structure (SMILES) | normalised response (CAL-51) [%] | normalised response (HCC1937) [%] | normalised response (MFM-223) [%] | normalised response (MCF-10A) [%] | normalised response (Hs578T) [%] | normalised response (SK-BR-3) [%] | normalised response (CAL-120) [%] | normalised response (BT-474) [%] | normalised response (MDA-MB-231) [%] | normalised response (MDA-MB-436) [%] | normalised response (HCC1143) [%] | normalised response (MDA-MB-468) [%] | normalised response (HCC1599) [%] | normalised response (MDA-MB-453) [%] | normalised response (DU-4475) [%] | normalised response (BT-549) [%] | normalised response (HDQ-P1) [%] | normalised response (CAL-148) [%]
1 | COc1cccc2c1C(=O)c1c(O)c3c(c(O)c1C2=O)C[C@@](O)(C(=O)CO)C[C@@H]3O[C@H]1C[C@H](N)[C@H](O)[C@H](C)O1 [Doxorubicin] (1000 nM) | 23.7 | 51.4 | 72.6 | 44 | 45.6 | 8.83 | 43.4 | 22.1 | 29 | 28.6 | 46.2 | 7.26 | 33.2 | 20.7 | 0.14 | 14.9 | 46.7 | 1.22
2 | CS(=O)(=O)c1ccc(C(=O)Nc2ccc(Cl)c(-c3ccccn3)c2)c(Cl)c1 [Vismodegib] (10000 nM) | 97.8 | 90 | 91.4 | 93.9 | 99.5 | 87.3 | 99.3 | 90.4 | 98 | 96.8 | 89.9 | 97.2 | 88.8 | 87.9 | 97.8 | 102 | 91.7 | 86.5
3 | CN1CC[C@H](c2c(O)cc(O)c3c(=O)cc(-c4ccccc4Cl)oc23)[C@H](O)C1 [Alvocidib] (10000 nM) | 15.7 | 26.2 | 10 | 7.83 | 7.68 | 1.32 | 37 | 21.7 | 3.28 | 20.1 | 17 | 5.01 | 13.9 | 18.1 | 8.12 | 5.51 | 26.2 | 58.3
4 | COc1cccc2cc(-c3nc([C@H]4CC[C@H](C(=O)O)CC4)n4ncnc(N)c34)[nH]c12 [OSI-027] (10000 nM) | 38 | 47.6 | 28.5 | 30.5 | 33.4 | 22.9 | 30.1 | 51.8 | 45.7 | 45.6 | 46.5 | 33.4 | 74.2 | 32.2 | 61.2 | 24.8 | 37.5 | 39.2
5 | C[C@]1(c2nc3c(C(N)=O)cccc3[nH]2)CCCN1 [Veliparib] (10000 nM) | 96.1 | 93.6 | 97.3 | 97.3 | 98.9 | 90.9 | 93.1 | 82.1 | 93.3 | 94.5 | 91.6 | 75.5 | 77.1 | 121 | 96.8 | 95.7 | 102 | 99.2
6 | OC[C@H]1O[C@@H](n2cnc3c2N=CNC[C@H]3O)C[C@@H]1O [Pentostatin] (10000 nM) | 90.2 | 98.9 | 99.3 | 106 | 98 | 104 | 101 | 88.9 | 103 | 96.8 | 99.1 | 103 | 108 | 110 | 99.8 | 92.5 | 98.1 | 105
7 | C=CCNC1=C2C[C@@H](C)C[C@H](OC)[C@H](O)[C@@H](C)/C=C(\C)[C@H](OC(N)=O)[C@@H](OC)/C=C\C=C(/C)C(=O)NC(=CC1=O)C2=O [Tanespimycin] (10000 nM) | 14.9 | 34 | 38.1 | 14 | 34.2 | 37.1 | 42.3 | 22.3 | 15.5 | 41.8 | 32.6 | 25.5 | 54.5 | 28.6 | -0.09 | 35.5 | 20.7 | 25
8 | CN1CCC(COc2cnc(-c3cccc(Cn4nc(-c5cccc(C#N)c5)ccc4=O)c3)nc2)CC1 (1000 nM) | 110 | 84 | 84.9 | 89.3 | 95.2 | 81 | 96.1 | 93.3 | 104 | 84.4 | 97.8 | 90.3 | 85.6 | 84 | 101 | 91.9 | 99.6 | 94.5
9 | Nc1ccn([C@@H]2O[C@H](CO)[C@@H](O)[C@@H]2O)c(=O)n1 [Cytarabine] (10000 nM) | 25.4 | 76.5 | 106 | 71.3 | 77.9 | 43 | 88.1 | 87.2 | 79.6 | 38.7 | 55.9 | 62.9 | 69.8 | 76.4 | 69.6 | 56.6 | 77.4 | 40.2
10 | N#CC[C@H](C1CCCC1)n1cc(-c2ncnc3[nH]ccc23)cn1 [Ruxolitinib] (10000 nM) | 88.9 | 96.9 | 73.2 | 72.5 | 102 | 91.5 | 77.7 | 81.8 | 86 | 88.4 | 93.3 | 88.7 | 94.4 | 87.6 | 98.4 | 101 | 86.3 | 98.2
